Literature values in patent publication US20220040100A1, “Stable Acyclovir Sodium Parenteral Formulation” (RK Pharma Solutions LLC, priority 2020, published 2022).
Structures can show the parent of a compound that is named as a salt.

Settings: lyophilized powder reconstituted with Sterile Water for Injection, 50 mg/mL of acyclovir

pH of the reconstituted solution: approximately 11
Compound: Nc1nc2c(ncn2COCCO)c(=O)[nH]1 [Acyclovir sodium, 2-amino-1,9-dihydro-9-[(2-hydroxyethoxy)methyl]-6H-purin-6-one monosodium salt]
